Tested on: B/Malaysia/2506/04 virus
Design: species or system BALB/c mice
Details: mouse, in vivo

## CCOC(=O)C1=C[C@@H](OC(CC)CC)[C@H](NC(C)=O)[C@@H](N)C1 [oseltamivir, Oseltamivir phosphate]
  weight loss: does not protect from weight loss
